Source: the NIST ThermoML archive (doi:10.1016/j.jct.2016.09.015)
Numbers after ± are expanded uncertainties.

Experiments:
[1] = Crystal; DTA
[2] = Molar enthalpy of transition or fusion; details: Crystal; DSC

Normal melting temperature [1]: 168.68 ± 0.46 °C
Molar enthalpy of transition or fusion [2]: 7.44 ± 0.526 kcal/mol
Structure (SMILES): C[C@@H]1O[C@@H](OC[C@H]2O[C@@H](Oc3c(-c4ccc(OCCO)c(OCCO)c4)oc4cc(OCCO)cc(O)c4c3=O)[C@H](O)[C@@H](O)[C@@H]2O)[C@H](O)[C@H](O)[C@H]1O [Troxerutin]
